Source: patent US8906825B2, “Herbicidal compositions comprising 4-amino-3-chloro-5-fluoro-6-(4-chloro-2-fluoro-3-methoxyphenyl) pyridine-2-carboxylic acid or a derivative thereof and triazolopyrimidine sulfonamides” (Dow AgroSciences LLC, priority 2012, dated 2014)

Legend:
Type in all cases: in vivo
[1] = system: DIGSA (Digitaria sanguinalis (L.) Scop., large crabgrass); test: Postemergence foliar-applied herbicidal mixtures, direct seeded rice, greenhouse (Example I)
Excerpt: (§1) Seeds or nutlets of the desired test plant species were planted in a soil matrix prepared by mixing a loam or sandy loam soil (e.g., 28.6 percent silt, 18.8 percent clay, and 52.6 percent sand, with a pH of about 5.8 and an organic matter content of about 1.8 percent) and calcareous grit in an 80 to 20 ratio. The soil matrix was contained in plastic pots with a volume of 1 quart and a surface area of 83.6 square centimeters (cm^2). When required to ensure good germination and healthy plants, a fungicide treatment and/or other chemical or physical treatment was applied. The plants were grown for 8-22 days in a greenhouse with an approximate 14 h photoperiod which was maintained at about 29° C. during the day and about 26° C. during the night. Nutrients (Peters Excel® 15-5-15 5-Ca 2-Mg and iron chelate) were applied in the irrigation solution as needed and water was added on a regular basis. Supplemental lighting was provided with overhead metal halide 1000-Watt lamps as necessary. The plants were employed for testing when they reached the first through fourth true leaf stage.
(§2) Treatments consisted of the acid or esters of 4-amino-3-chloro-5-fluoro-6-(4-chloro-2-fluoro-3-methoxy-phenyl)pyridine-2-carboxylic acid (Compound A), each formulated as an SC (suspension concentrate), and various herbicidal components alone and in combination. Forms of compound A were applied on an acid equivalent basis.
(§3) Other herbicidal components were applied on an active ingredient basis and included acetolactate synthase (ALS)-inhibiting herbicides (sulfonamide chemical class) penoxsulam formulated as Grasp® SC, diclosulam formulated as Strongarm®, and cloransulam-methyl formulated as FirstRate®, flumetsulam formulated as Flumetsulam WG, and metosulam formulated as Eclipse®.
(§4) Treatment requirements were calculated based upon the rates being tested, the concentration of active ingredient or acid equivalent in the formulation, and a 12 mL application volume at a rate of 187 L/ha.
(§5) For treatments comprised of formulated compounds, measured amounts of compounds were placed individually in 25 mL glass vials and diluted in a volume of 1.25% (v/v) Agri-Dex® crop oil concentrated to obtain 12× stock solutions. […] Application solutions were prepared by adding an appropriate amount of each stock solution (e.g., 1 mL) and diluted to the appropriate final concentrations with the addition of 10 mL of an aqueous mixture of 1.25% (v/v) crop oil concentrate so that the final spray solutions contained 1.25+/−0.05% (v/v) crop oil concentrate.
(§6) All stock solutions and applications solutions were visually inspected for compound compatibility prior to application. Spray solutions were applied to the plant material with an overhead Mandel track sprayer equipped with an 8002E nozzle calibrated to deliver 187 L/ha over an application area of 0.503 m^2 at a spray height of 18 to 20 inches (46 to 50 cm) above average plant canopy height. Control plants were sprayed in the same manner with the solvent blank.
(§7) The treated plants and control plants were placed in a greenhouse as described above and watered by sub-irrigation to prevent wash-off of the test compounds. After approximately 3 weeks, the condition of the test plants as compared with that of the untreated plants was determined visually and scored on a scale of 0 to 100 percent where 0 corresponds to no injury or growth inhibition and 100 corresponds to complete kill.
(§8) Colby's equation was used to determine the herbicidal effects expected from the mixtures (Colby, S. R. 1967. Calculation of the synergistic and antagonistic response of herbicide combinations. Weeds 15:20-22.).
(§9) The following equation was used to calculate the expected activity of mixtures containing two active ingredients, A and B: Expected=A+B−(A×B/100)

[2] = system: IPOHE (Ipomoea hederacea Jacq., ivyleaf morningglory); test: as above
Excerpt: as §1, §2, §3, §4, §5, §6, §7, §8, §9

[3] = system: LEFCH (Leptochloa chinensis (L.) Nees, Chinese sprangletop); test: as above
Excerpt: as §1, §2, §3, §4, §5, §6, §7, §8, §9

[4] = system: CYPDI (Cyperus difformis L., smallflower umbrella sedge); test: In-water applied herbicidal mixtures, transplanted paddy rice, greenhouse (Example II); conditions: Compound A Acid 16 gae/ha
Procedure: (§10) Weed seeds or nutlets of the desired test plant species were planted in puddled soil (mud) prepared by mixing a shredded, non-sterilized mineral soil (50.5 percent silt, 25.5 percent clay, and 24 percent sand, with a pH of about 7.6 and an organic matter content of about 2.9 percent) and water at a 1:1 volumetric ratio. The prepared mud was dispensed in 365 mL aliquots into 16-ounce (oz.) non-perforated plastic pots with a surface area of 86.59 square centimeters (cm^2) leaving a headspace of 3 centimeters in each pot. Mud was allowed to dry overnight prior to planting or transplanting. Rice seeds were planted in Sun Gro MetroMix® 306 planting mixture, which typically has a pH of 6.0 to 6.8 and an organic matter content of about 30 percent, in plastic plug trays. Seedlings at the second or third leaf stage of growth were transplanted into 840 mL of mud contained in 32-oz. non-perforated plastic pots with a surface area of 86.59 cm^2 4 days prior to herbicide application. The paddy was created by filling the headspace of the pots with 2.5 to 3 cm of water. When required to ensure good germination and healthy plants, a fungicide treatment and/or other chemical or physical treatment was applied. The plants were grown for 4-22 days in a greenhouse with an approximate 14 h photoperiod which was maintained at about 29′C during the day and about 26° C. during the night. Nutrients were added as Osmocote® (19:6:12, N:P:K+minor nutrients) at 2 g per 16-oz. pot and 4 g per 32-oz. pot. Water was added on a regular basis to maintain the paddy flood, and supplemental lighting was provided with overhead metal halide 1000-Watt lamps as necessary. The plants were employed for testing when they reached the first through fourth true leaf stage.
(§11) Treatments consisted of the acid or esters of 4-amino-3-chloro-5-fluoro-6-(4-chloro-2-fluoro-3-methoxy-phenyl)pyridine-2-carboxylic acid (compound A) each formulated as an SC and various herbicidal components alone and in combination. Forms of compound A were applied on an acid equivalent basis.
(§12) Other herbicidal components were applied on an active ingredient basis and included acetolactate synthase (ALS)-inhibiting herbicides (sulfonamide chemical class) penoxsulam formulated as Grasp® SC (GF-443), diclosulam formulated as Strongarm®, and cloransulam-methyl formulated as FirstRate®.
(§13) Treatment requirements for each compound or herbicidal component were calculated based upon the rates being tested, the concentration of active ingredient or acid equivalent in the formulation, an application volume of 2 mL per component per pot, and an application area of 86.59 cm^2 per pot.
(§14) For formulated compounds, a measured amount was placed in an individual 100 or 200 mL glass vial and was dissolved in a volume of 1.25% (v/v) Agri-Dex® crop oil concentrate to obtain each application solution.
(§15) Applications were made by injecting with a pipetter appropriate amounts of the application solutions, individually and sequentially, into the aqueous layer of the paddy. Control plants were treated in the same manner with the solvent blank. Applications were made so that all treated plant material received the same concentrations of acetone and crop oil concentrate.
as §7, with “water was added as needed” for “watered by sub-irrigation”, “maintain a paddy flood.” for “prevent wash-off of the test compounds.”, “weeks” for “weeks,”
as §8, §9

[5] = system: CYPRO (Cyperus rotundus L., purple nutsedge); test: as above; conditions: Compound A Acid 8.75 gae/ha
Procedure: as §10, §11, §12, §13, §14, §15
as §7, with “water was added as needed” for “watered by sub-irrigation”, “maintain a paddy flood.” for “prevent wash-off of the test compounds.”, “weeks” for “weeks,”
as §8, §9

[6] = system: ECHCG (Echinochloa crusgalli (L.) Beauv., barnyardgrass); test: as above
Procedure: as §10, §11, §12, §13, §14, §15
as §7, with “water was added as needed” for “watered by sub-irrigation”, “maintain a paddy flood.” for “prevent wash-off of the test compounds.”, “weeks” for “weeks,”
as §8, §9

[7] = system: FIMMI (Fimbristylis miliacea (L.) Vahl, globe fringerush); test: as above
Procedure: as §10, §11, §12, §13, §14, §15
as §7, with “water was added as needed” for “watered by sub-irrigation”, “maintain a paddy flood.” for “prevent wash-off of the test compounds.”, “weeks” for “weeks,”
as §8, §9

[8] = system: LEFCH (Leptochloa chinensis (L.) Nees, Chinese sprangletop); test: as above
Procedure: as §10, §11, §12, §13, §14, §15
as §7, with “water was added as needed” for “watered by sub-irrigation”, “maintain a paddy flood.” for “prevent wash-off of the test compounds.”, “weeks” for “weeks,”
as §8, §9

## COc1c(Cl)ccc(-c2nc(C(=O)O)c(Cl)c(N)c2F)c1F [Compound A Acid, 4-amino-3-chloro-5-fluoro-6-(4-chloro-2-fluoro-3-methoxy-phenyl)pyridine-2-carboxylic acid]
[1]; Compound A Acid 5.3 gae/ha
  Visual Weed Control (%) - 20 DAA DIGSA Obs: 10%
[1]; Compound A Acid 10.6 gae/ha
  Visual Weed Control (%) - 20 DAA DIGSA Obs: 20%
[1]; Compound A Acid 21.2 gae/ha
  Visual Weed Control (%) - 20 DAA DIGSA Obs: 20%
[2]; Compound A Acid 4.38 gae/ha
  Visual Weed Control (%) - 27 DAA IPOHE Obs: 10%
[2]; Compound A Acid 8.75 gae/ha
  Visual Weed Control (%) - 27 DAA IPOHE Obs: 10%
[2]; Compound A Acid 17.5 gae/ha
  Visual Weed Control (%) - 27 DAA IPOHE Obs: 10%
[3]; Compound A Acid 4.38 gae/ha
  Visual Weed Control (%) - 20 DAA LEFCH Obs: 15%
[3]; Compound A Acid 5.3 gae/ha
  Visual Weed Control (%) - 20 DAA LEFCH Obs: 0%
[3]; Compound A Acid 8.75 gae/ha
  Visual Weed Control (%) - 20 DAA LEFCH Obs: 30%
[3]; Compound A Acid 10.6 gae/ha
  Visual Weed Control (%) - 20 DAA LEFCH Obs: 10%
[3]; Compound A Acid 17.5 gae/ha
  Visual Weed Control (%) - 20 DAA LEFCH Obs: 50%
[3]; Compound A Acid 19.4 gae/ha
  Visual Weed Control (%) - 19 DAA LEFCH Obs: 5%
[3]; Compound A Acid 21.2 gae/ha
  Visual Weed Control (%) - 20 DAA LEFCH Obs: 15%
[4]
  Visual Weed Control (%) - 21 DAA CYPDI Obs: 30%
[5]
  Visual Weed Control (%) - 21 DAA CYPRO Obs: 0%
[6]; Compound A Acid 16 gae/ha
  Visual Weed Control (%) - 22 DAA ECHCG Obs: 20%
[6]; Compound A Acid 32 gae/ha
  Visual Weed Control (%) - 22 DAA ECHCG Obs: 25%
[7]; Compound A Acid 16 gae/ha
  Visual Weed Control (%) - 21 DAA FIMMI Obs: 20%
[7]; Compound A Acid 32 gae/ha
  Visual Weed Control (%) - 21 DAA FIMMI Obs: 20%
[8]; Compound A Acid 8.75 gae/ha
  Visual Weed Control (%) - 25 DAA LEFCH Obs: 50%
[8]; Compound A Acid 17.5 gae/ha
  Visual Weed Control (%) - 25 DAA LEFCH Obs: 50%
[8]; Compound A Acid 35 gae/ha
  Visual Weed Control (%) - 25 DAA LEFCH Obs: 85%
